This is an account of results in patent publication US20260256143A1, “HERBICIDAL COMPOSITION AND METHOD FOR CONTROLLING WEEDS” (Enko Chem, Inc., priority 2023, published 2026).

Like-named read-outs stand apart in the source and are kept apart here.

Test [1] concerns AMATU. The test is described as follows: Greenhouse post-emergence foliar test (Example 72). Type of test: in vivo, Amaranthus rudis. The settings on record: Amaranthus tuberculatus, 336 h, read-out: % Visual growth inhibition (AMATU). The method, then: (§1) Compound 1 was tested at several doses for foliar weed control efficacy by itself or in combination with other herbicides.
(§2) The weed seeds were sown in 10″×20″ trays and propagated up to the transplanting stage which is 1-2 emerging leaves. One plant was then transplanted into 7×7×8 cm pots and sprayed with the compounds when plants reached the 3-4 true leaf stage for grass species or 10-15 cm for broadleaf species. The plants were propagated in a greenhouse with 26-28° C. day, 20-22° C. night temperature at 50-60%0 relative humidity and supplemental light using high pressure sodium grow lights when necessary. Three weeks after sowing, plants were sprayed with the test compound solution in a laboratory spray chamber fitted with 8003 even fan nozzle calibrated to deliver 187 L ha^−1 at 269 kPa. All treatments included the following inert ingredients in the final formulation; […] (AGRI-DEX®, Helena Agri), 2.5% Ammonium sulphate (w/v), and 0.1% Tween-20 (v/v). Plants were evaluated for percentage visual growth inhibition compared to treated control, 14 days after treatment (DAT).

The subject of test [2] is ECHCG. The test is described as follows: Greenhouse post-emergence foliar test (Example 72). The test is classed as in vivo. Particulars: Echinochloa crus-galli, 336 h, read-out: % Visual growth inhibition (ECHCG). The method, then: as §1, §2
Test [3] deals with ECHCG. In words: Greenhouse pre-emergence residual test (Example 73). Type of test: in vivo, Echinochloa crus-galli. Particulars: 17-21 DAT. The method, then: (§3) Compound 1 was tested at several doses for residual weed control efficacy by itself or in combination as a tank mix with commercial herbicides. The following commercial products were used in tank mix with a 10% active emulsifiable concentrate formulation of Compound 1: S-metolachlor (Dual Magnum®, Syngenta), mesotrione (Callisto®, Syngenta), pyroxasulfone (Zidua® SC, BASF), metribuzin (Tricor DF™, United Phosphorus, Inc).
(§4) Accordingly, weed seeds were planted in 2-inch pots containing custom field soil mix (sandy loam with 3.3% organic matter, pH 7.0) and covered with a fine layer of the same soil. Three replicate pots were treated with each compound. Treatment consisting of the above formulation excluding active compound was applied as a treatment control (TC). Pots were treated with the test compound solution in a laboratory spray chamber fitted with 8003 even fan nozzles calibrated to deliver 187-200 L ha^−1 at 269 kPa. All treatments included the following inert ingredients in the final formulation; 1% Crop Oil Concentrate (v/v) (AGRI-DEX, Helena Agri) and 2.5% Ammonium sulphate (w/v). Compound 1 was incorporated into the soil by simulating rainfall equivalent to 0.2 mm using the same track sprayer. Subsequently, pots were irrigated from the bottom until weed control evaluation. Pots were placed back in the greenhouse and evaluated for percentage visual growth and germination inhibition compared to TC 17-21 days after treatment (DAT). Complete growth inhibition is represented by 100%.

Test [4] relates to ALOMY. Described as above. The test is classed as in vivo, Alopecurus myosuroides. Particulars: 17-21 DAT. The method, then:
as §3, §4

The test system of test [5] is DIGSA. The description is as above. The test is classed as in vivo, Digitaria sanguinalis. The settings on record: 17-21 DAT. The method, then: as §3, §4
Test [6] deals with AMATU. The description is as above. The test is classed as in vivo, Amaranthus rudis. The settings on record: 17-21 DAT. How it is done:
as §3, §4

Test [7] deals with CHEAL. The description is as above. Particulars: 17-21 DAT. The test is classed as in vivo, Chenopodium album. The method, then: as §3, §4
Test [8] deals with KCHSC. The test is described as above. The settings on record: 17-21 DAT. Type of test: in vivo, Bassia scoparia. How it is done: as §3, §4
Test [9] concerns AMAPA. Described as above. The settings on record: 17-21 DAT. The test is classed as in vivo, Amaranthus palmeri. How it is done: as §3, §4
Test [10] concerns CHEAL. In words: Field test, post-emergence foliar application (Example 70). Particulars: glyphosate 1120 g a.i./ha, 2 weeks after application. Type of test: in vivo, Chenopodium album. The method, then: (§5) Compound 1 and Compound 1 mixed with glyphosate were tested at different field locations to evaluate the herbicides efficacy for controlling weeds by post-emergence foliar application. All herbicide treatments were applied with a backpack CO2 pressurized sprayer at 190 L/ha volume. The applications were made after the weeds emerged and reached the 5 to 12 cm size range. Herbicide treatments included Compound 1 formulated as 10% emulsified concentrate, glyphosate as a commercial formulation (Roundup Power Max, Monsanto), or a mixture of Compound 1 and glyphosate products prepared as a “tank-mix” before the field application. All herbicide field spray solution included ammonium sulfate and concentrated crop oil adjuvant to a final solution concentration of 2% and 1% respectively. Different weeds species were assessed at the separate field locations. For each species, the herbicide efficacy to control weeds, assessed as % of dead plants relative to the untreated control plots, was evaluated at 2 weeks after the herbicide application to account for weed re-growth.

Test [11] concerns SETFA. The test is described as above. Type of test: in vivo, Setaria faberi. Particulars: Loc 15; glyphosate 1120 g a.i./ha; 2 weeks after application. The method, then: as §5
For test [12], the system named is ABUTH. Described as above. The test is classed as in vivo, Abutilon theophrasti. The settings on record: Loc 13; glyphosate 1120 g a.i./ha; 2 weeks after application. The method, then:
as §5

Test [13] has as its system AMAPA. The description is as above. Particulars: Loc 13; glyphosate 1120 g a.i./ha; 2 weeks after application. The test is classed as in vivo, Amaranthus palmeri. How it is done: as §5
For test [14], the system named is AMATU. Described as above. Type of test: in vivo, Amaranthus rudis. The settings on record: glyphosate 1120 g a.i./ha, 2 weeks after application. The method, then:
as §5

By inhibition is commonly meant the change of the read-out against control, counted positive when it falls.

Consider `O=C(O)COc1ccc(Cl)cc1Cl` [2,4-D acid, 2,4-dichlorophenoxyacetic acid], for which the inhibition at 280 g/ha was 89% in test [1] and 10% in [2].

In the case of `CCc1cccc(C)c1N(C(=O)CCl)[C@@H](C)COC` [S-metolachlor], the “Pre-emergence percent weed growth and germination inhibition ECHCG” value in test [3] (Dose 1000 g a.i./ha) was determined as 93%. Besides, in test [4] (Dose 1000 g a.i./ha), the “Pre-emergence percent weed growth and germination inhibition ALOMY” value was 30%. In test [5] (Dose 1000 g a.i./ha), the “Pre-emergence percent weed growth and germination inhibition DIGSA” value is 80%. For the same compound, the “Pre-emergence percent weed growth and germination inhibition AMATU” value in test [6] (Dose 1000 g a.i./ha) is recorded as 80%. Further, the “Pre-emergence percent weed growth and germination inhibition CHEAL” value in test [7] (Dose 1000 g a.i./ha) worked out at 50%. Further, the “Pre-emergence percent weed growth and germination inhibition KCHSC” value in [8] (Dose 1000 g a.i./ha) is on record as 57%. Moreover, the “Pre-emergence percent weed growth and germination inhibition AMAPA” value in test [9] (Dose 1000 g a.i./ha) was 65%.

Turning to `COc1c(Cl)ccc(Cl)c1C(=O)O` [dicamba, 3,6-dichloro-2-methoxybenzoic acid], the inhibition at 280 g/ha is 74% in [1] (Dose 280 g a.i./ha, 14 DAT) and 5% in [2] (Dose 280 g a.i./ha, 14 DAT).

For `CP(=O)(O)CCC(N)C(=O)O` (stereo not shown) [glufosinate], the inhibition at 450 g/ha came to 96% in test [1] and 41% in test [2].

With `O=C(O)CNCP(=O)(O)O` [glyphosate], in test [1], the inhibition at 1000 g/ha was determined as 60%. For the same compound, the “% dead CHEAL” value in test [10] (Loc 11) and in test [10] (Loc 14) was 88% throughout. In addition, in test [11], the “% dead SETFA” value amounted to 100%. For the same compound, the “% dead ABUTH” value in [12] is 85%. Besides, in [13], the “% dead AMAPA” value was determined as 13%. Moreover, the “% dead AMATU” value amounted to 88% in test [14] (Loc 11), 50% in test [14] (Loc 12), 32% in [14] (Loc 14) and 12% in test [14] (Loc 15). Moreover, the inhibition at 860 g/ha in test [2] stood at 84%.

On to `CS(=O)(=O)c1ccc(C(=O)C2C(=O)CCCC2=O)c([N+](=O)[O-])c1` [mesotrione], for which the inhibition at 105 g/ha in [1] (Dose 105 g a.i./ha, 14 DAT) turned out to be 61%; in [2] (Dose 105 g a.i./ha, 14 DAT) it was 95%. Besides, the inhibition at 210 g/ha was determined as 33% in test [3] (Echinochloa crus-galli, pre-emergence, Dose 210 g a.i./ha, read-out: Pre-emergence percent weed growth and germination inhibition ECHCG); 20% in test [4] (Alopecurus myosuroides, pre-emergence, Dose 210 g a.i./ha, read-out: Pre-emergence percent weed growth and germination inhibition ALOMY); 82% in test [5] (Digitaria sanguinalis, pre-emergence, Dose 210 g a.i./ha, read-out: Pre-emergence percent weed growth and germination inhibition DIGSA); 75% in [6] (Amaranthus tuberculatus, pre-emergence, Dose 210 g a.i./ha, read-out: Pre-emergence percent weed growth and germination inhibition AMATU); 100% in [7] (Chenopodium album, pre-emergence, Dose 210 g a.i./ha, read-out: Pre-emergence percent weed growth and germination inhibition CHEAL); 77% in test [8] (Bassia scoparia, pre-emergence, Dose 210 g a.i./ha, read-out: Pre-emergence percent weed growth and germination inhibition KCHSC). Moreover, the inhibition at 210 g/ha in test [9] (Amaranthus palmeri, pre-emergence, Dose 210 g a.i./ha, read-out: Pre-emergence percent weed growth and germination inhibition AMAPA) came out at 53%.

As to `CSc1nnc(C(C)(C)C)c(=O)n1N` [metribuzin], the inhibition at 200 g/ha in test [3] (Echinochloa crus-galli, pre-emergence, Dose 200 g a.i./ha, read-out: Pre-emergence percent weed growth and germination inhibition ECHCG) turned out to be 12%; in [4] (Alopecurus myosuroides, pre-emergence, Dose 200 g a.i./ha, read-out: Pre-emergence percent weed growth and germination inhibition ALOMY) it was 12%; in test [5] (Digitaria sanguinalis, pre-emergence, Dose 200 g a.i./ha, read-out: Pre-emergence percent weed growth and germination inhibition DIGSA), 13%; in test [6] (Amaranthus tuberculatus, pre-emergence, Dose 200 g a.i./ha, read-out: Pre-emergence percent weed growth and germination inhibition AMATU), 65%; in test [7] (Chenopodium album, pre-emergence, Dose 200 g a.i./ha, read-out: Pre-emergence percent weed growth and germination inhibition CHEAL), 100%; in test [8] (Bassia scoparia, pre-emergence, Dose 200 g a.i./ha, read-out: Pre-emergence percent weed growth and germination inhibition KCHSC), 100%. The inhibition at 200 g/ha in test [9] (Amaranthus palmeri, pre-emergence, Dose 200 g a.i./ha, read-out: Pre-emergence percent weed growth and germination inhibition AMAPA) was 20%.
